The target of one experiment is T1, human ERα (Homo sapiens, UniProt P03372).
T1 sequence (P03372 1-595): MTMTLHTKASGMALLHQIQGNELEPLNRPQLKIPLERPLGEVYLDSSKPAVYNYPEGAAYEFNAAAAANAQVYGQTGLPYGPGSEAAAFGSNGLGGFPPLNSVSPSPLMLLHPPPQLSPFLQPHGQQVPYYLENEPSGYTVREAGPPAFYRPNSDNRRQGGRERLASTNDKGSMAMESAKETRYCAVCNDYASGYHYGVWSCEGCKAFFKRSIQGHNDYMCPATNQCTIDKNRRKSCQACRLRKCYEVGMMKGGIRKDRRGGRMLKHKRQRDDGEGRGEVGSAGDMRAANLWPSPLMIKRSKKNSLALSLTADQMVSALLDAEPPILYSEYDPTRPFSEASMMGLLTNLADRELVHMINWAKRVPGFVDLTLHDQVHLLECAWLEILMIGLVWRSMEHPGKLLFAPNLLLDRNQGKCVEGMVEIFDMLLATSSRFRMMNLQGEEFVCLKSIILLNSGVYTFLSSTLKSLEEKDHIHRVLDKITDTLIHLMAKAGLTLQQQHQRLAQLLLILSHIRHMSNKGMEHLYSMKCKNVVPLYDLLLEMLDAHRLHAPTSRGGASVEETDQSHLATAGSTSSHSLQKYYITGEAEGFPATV
Kind of experiment: competitive radiometric binding assay with [3H]estradiol, ERα.

For a further experiment, the target named is human ERβ (Homo sapiens, UniProt Q92731). The experiment can be described thus: competitive radiometric binding assay with [3H]estradiol, ERβ.
human ERβ, sequence (Q92731 whole entry): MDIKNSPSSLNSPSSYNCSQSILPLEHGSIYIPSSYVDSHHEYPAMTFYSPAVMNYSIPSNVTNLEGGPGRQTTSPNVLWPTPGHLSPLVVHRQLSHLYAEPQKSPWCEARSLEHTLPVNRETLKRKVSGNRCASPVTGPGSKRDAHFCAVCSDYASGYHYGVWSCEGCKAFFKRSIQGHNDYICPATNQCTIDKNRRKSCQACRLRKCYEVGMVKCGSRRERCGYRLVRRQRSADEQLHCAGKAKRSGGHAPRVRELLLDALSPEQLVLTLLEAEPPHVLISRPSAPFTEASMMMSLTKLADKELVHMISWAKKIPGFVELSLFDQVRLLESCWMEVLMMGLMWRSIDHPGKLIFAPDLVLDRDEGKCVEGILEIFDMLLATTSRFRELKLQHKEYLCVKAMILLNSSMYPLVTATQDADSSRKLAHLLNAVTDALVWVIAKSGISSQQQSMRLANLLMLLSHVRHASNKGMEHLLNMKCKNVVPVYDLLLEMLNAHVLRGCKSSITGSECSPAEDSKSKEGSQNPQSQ

Regarding `O=C1C[C@@H](c2ccc(O)cc2)Oc2cc(O)cc(O)c21` [NCI-34875, Naringenin], the inhibitory constant (Ki) at human ERα is 2.56 ± 0.5 µM; on human ERβ it was 3.1 ± 0.9 µM.

What is called Ki is the equilibrium dissociation constant of an inhibitor or competing ligand from its target. Low readings indicate tighter binding, high ones weaker binding.
